Measured values from article PMC6220303 (EMBO Molecular Medicine, 2018).
Like-named read-outs stand apart in the source and are kept apart here.

Columns and labels:
clinical = type: in vivo, human
Method: The lower limit of quantification (LLOQ) was 1 ng/ml in plasma and 2 ng/ml in urine and CSF, except for the 3‐month study where the method for CSF was more sensitive (LLOQ 0.1 ng/ml). Plasma PK parameters were calculated using actual recorded sampling times and non‐compartmental methods with Phoenix WinNonlin version 6.4 (Certara, Inc., Princeton, NJ, USA).
(§1) For further details, see the Appendix Table S10 in Appendix and the accompanying clinical protocols synopsis (Appendix Table S11).

[1] = test system: healthy participants ≥ 60 years; experiment: Adverse events after single dose (Appendix Table S6); type: in vivo, human
From the text: as §1
Appendix Table S3. Overview of completed clinical studies with CNP520
Study description Population No. of Participants Dose/Frequency […]
First-in-human, randomized, 18-55 yrs 38 / 14 Single dose (10, 30, 90, […]
controlled, single and multiple CNP520 vs placebo) ascending oral dose study to Single dose (10, 90, 300,

[2] = single dose 1250 mg, adults (2), individual data points

## C[C@@]1(c2nc(NC(=O)c3ncc(C(F)(F)F)cc3Cl)ccc2F)CO[C@@](C)(C(F)(F)F)C(N)=N1 [CNP520]
clinical; human, plasma, oral, 10 mg, single dose 10 mg, adults (n = 5), mean (%CV)
  AUC(0-inf): 948 ng·h/mL
clinical; human, plasma, oral, 10 mg, single dose 10 mg, adults (n = 5), mean (%CV), read-out: T1/2 (converted)
  half-life: 61.3 h
clinical; human, plasma, oral, 10 mg, single dose 10 mg, adults ≥ 60 years (6), mean (%CV), read-out: Cmax
  Cmax: 16 ng/mL
clinical; human, plasma, oral, 10 mg, single dose 10 mg, adults ≥ 60 years (6), median (min–max), read-out: Tmax
  Tmax: 4.02 h
clinical; human, plasma, oral, 30 mg, single dose 30 mg, adults (12), mean (%CV)
  AUC(0-inf): 3070 ng·h/mL
clinical; human, plasma, oral, 30 mg, single dose 30 mg, adults (12), mean (%CV), read-out: Cmax
  Cmax: 65.7 ng/mL
clinical; human, plasma, oral, 30 mg, single dose 30 mg, adults (12), mean (%CV), read-out: T1/2 (converted)
  half-life: 64.3 h
clinical; human, plasma, oral, 30 mg, single dose 30 mg, adults (12), median (min–max), read-out: Tmax
  Tmax: 3.5 h
clinical; human, plasma, oral, 35 mg, 3 months, Day 91, median (min–max)
  Tmax: 2.5 h
clinical; human, plasma, oral, 35 mg, 3 months, Day 91, ≥ 60 years, mean (CV%)
  Cmax: 237 ng/mL
clinical; human, plasma, oral, 35 mg, AUC 0–24h, 35 mg, 3 months, Day 91, mean (CV%)
  AUC(0-t): 4450 ng·h/mL
clinical; human, plasma, oral, 75 mg, AUC 0–72h, food effect, 75 mg Fasted (10), adults, mean (%CV)
  AUC(0-t): 4450 ng·h/mL
clinical; human, plasma, oral, 75 mg, AUC 0–72h, food effect, 75 mg Fed (10), adults, mean (%CV)
  AUC(0-t): 4870 ng·h/mL
clinical; human, plasma, oral, 75 mg, food effect, 75 mg Fasted (10), adults, mean (%CV), read-out: Cmax
  Cmax: 164 ng/mL
clinical; human, plasma, oral, 75 mg, food effect, 75 mg Fasted (10), adults, median (min–max), read-out: Tmax
  Tmax: 3.5 h
clinical; human, plasma, oral, 75 mg, food effect, 75 mg Fed (10), adults, mean (%CV), read-out: Cmax
  Cmax: 179 ng/mL
clinical; human, plasma, oral, 75 mg, food effect, 75 mg Fed (10), adults, median (min–max), read-out: Tmax
  Tmax: 4.04 h
clinical; human, plasma, oral, 85 mg, 3 months, Day 91, median (min–max)
  Tmax: 2.5 h
clinical; human, plasma, oral, 85 mg, 3 months, Day 91, ≥ 60 years, mean (CV%)
  Cmax: 602 ng/mL
clinical; human, plasma, oral, 85 mg, AUC 0–24h, 85 mg, 3 months, Day 91, mean (CV%)
  AUC(0-t): 11200 ng·h/mL
clinical; human, plasma, oral, 90 mg, 14 days, Day 14, median (min–max)
  Tmax: 3 h
clinical; human, plasma, oral, 90 mg, 14 days, Day 14, ≥ 60 years, mean (CV%)
  Cmax: 581 ng/mL
clinical; human, plasma, oral, 90 mg, AUC 0–24h, 90 mg, 14 days, Day 14, mean (CV%)
  AUC(0-t): 9380 ng·h/mL
clinical; human, plasma, oral, 90 mg, single dose 90 mg, adults (6), mean (%CV)
  AUC(0-inf): 7190 ng·h/mL
clinical; human, plasma, oral, 90 mg, single dose 90 mg, adults (6), mean (%CV), read-out: Cmax
  Cmax: 138 ng/mL
clinical; human, plasma, oral, 90 mg, single dose 90 mg, adults (6), mean (%CV), read-out: T1/2 (converted)
  half-life: 66.2 h
clinical; human, plasma, oral, 90 mg, single dose 90 mg, adults (6), median (min–max), read-out: Tmax
  Tmax: 3.5 h
clinical; human, plasma, oral, 90 mg, single dose 90 mg, adults ≥ 60 years (6), mean (%CV), read-out: Cmax
  Cmax: 172 ng/mL
clinical; human, plasma, oral, 90 mg, single dose 90 mg, adults ≥ 60 years (6), median (min–max), read-out: Tmax
  Tmax: 2.02 h
clinical; human, plasma, oral, 300 mg, 14 days, Day 14, median (min–max)
  Tmax: 2.51 h
clinical; human, plasma, oral, 300 mg, 14 days, Day 14, ≥ 60 years, mean (CV% 25.1)
  Cmax: 1710 ng/mL
clinical; human, plasma, oral, 300 mg, AUC 0–24h, 300 mg, 14 days, Day 14, mean (CV%)
  AUC(0-t): 28300 ng·h/mL
clinical; human, plasma, oral, 300 mg, single dose 300 mg, adults (6), mean (%CV)
  AUC(0-inf): 23500 ng·h/mL
clinical; human, plasma, oral, 300 mg, single dose 300 mg, adults (6), mean (%CV), read-out: Cmax
  Cmax: 498 ng/mL
clinical; human, plasma, oral, 300 mg, single dose 300 mg, adults (6), mean (%CV), read-out: T1/2 (converted)
  half-life: 57.9 h
clinical; human, plasma, oral, 300 mg, single dose 300 mg, adults (6), median (min–max), read-out: Tmax
  Tmax: 6 h
clinical; human, plasma, oral, 300 mg, single dose 300 mg, adults ≥ 60 years (18), mean (%CV), read-out: Cmax
  Cmax: 440 ng/mL
clinical; human, plasma, oral, 300 mg, single dose 300 mg, adults ≥ 60 years (18), median (min–max), read-out: Tmax
  Tmax: 5.04 h
clinical; human, plasma, oral, 750 mg, single dose 750 mg, adults (6), mean (%CV)
  AUC(0-inf): 90100 ng·h/mL
clinical; human, plasma, oral, 750 mg, single dose 750 mg, adults (6), mean (%CV), read-out: Cmax
  Cmax: 1150 ng/mL
clinical; human, plasma, oral, 750 mg, single dose 750 mg, adults (6), mean (%CV), read-out: T1/2 (converted)
  half-life: 83.8 h
clinical; human, plasma, oral, 750 mg, single dose 750 mg, adults (6), median (min–max), read-out: Tmax
  Tmax: 2.5 h
clinical; human, plasma, oral, 750 mg, single dose 750 mg, adults ≥ 60 years (20), mean (%CV), read-out: Cmax
  Cmax: 1120 ng/mL
clinical; human, plasma, oral, 750 mg, single dose 750 mg, adults ≥ 60 years (20), median (min–max), read-out: Tmax
  Tmax: 3 h
clinical; human, plasma, oral, 1250 mg, single dose 1250 mg, adults (2), individual data points
  AUC(0-inf): 168000 ng·h/mL
clinical; human, plasma, oral, 1250 mg, single dose 1250 mg, adults (2), individual data points, read-out: Cmax
  Cmax: 2850 ng/mL
clinical; human, plasma, oral, 1250 mg, single dose 1250 mg, adults (2), individual data points, read-out: T1/2 (converted)
  half-life: 76.4 h
clinical; human, plasma, oral, 1250 mg, single dose 1250 mg, adults (2), individual data points, read-out: Tmax
  Tmax: 4 h
clinical; human, plasma, oral, after dose, human pharmacokinetic studies, read-out: T max
  Tmax: 1 to 8 h
clinical; human, plasma, oral, healthy adult participants, single dose, read-out: mean terminal T 1/2
  half-life: 61.3 to 83.8 h
clinical; [2]
  AUCinf: 184000 ng·h/mL
  Cmax: 2890 ng/mL
  T1/2: 86.1 h
  Tmax: 8.00 h
clinical; typically, at pharmacologically active doses in animals and humans
  unbound concentration of CNP520 in plasma: below 0.1 μM
[1]; single dose 300 mg, N = 10
  AE incidence: Blood and lymphatic system disorders: 1 (10.0) n (%)
  AE incidence: Cardiac disorders: 1 (10.0) n (%)
  AE incidence: Gastrointestinal disorders: 4 (40.0) n (%)
  AE incidence: General disorders and administration site conditions: 3 (30.0) n (%)
  AE incidence: Nervous system disorders: 4 (40.0) n (%)
  AE incidence: Renal and urinary disorders: 0 (0.0) n (%)
  AE incidence: Respiratory, thoracic and mediastinal disorders: 2 (20.0) n (%)
  AE incidence: Skin and subcutaneous tissue disorders: 3 (30.0) n (%)
  Participants with at least one AE: 10 (100.0) n (%)
[1]; single dose 750 mg, N = 11
  AE incidence: Blood and lymphatic system disorders: 0 (0.0) n (%)
  AE incidence: Cardiac disorders: 0 (0.0) n (%)
  AE incidence: Gastrointestinal disorders: 3 (27.3) n (%)
  AE incidence: General disorders and administration site conditions: 3 (27.3) n (%)
  AE incidence: Nervous system disorders: 7 (63.6) n (%)
  AE incidence: Renal and urinary disorders: 1 (9.1) n (%)
  AE incidence: Respiratory, thoracic and mediastinal disorders: 0 (0.0) n (%)
  AE incidence: Skin and subcutaneous tissue disorders: 1 (9.1) n (%)
  Participants with at least one AE: 9 (81.8) n (%)
